Test results published in patent EP0326134A1, “4-Amino-2,3-disubstituted-6,7-dihydro-5H-1-pyridine derivatives, process for their preparation and medicaments containing them” (NAUCHNO-ISSLEDOVATELSKY INSTITUT TEKHNOLOGII I BEZOPASNOSTI …, priority 1988, dated 1989).
Counter-ions that a name gives are not always drawn. Like-named read-outs stand apart in the source and are kept apart here.

Tests used:
M2-Cholinrezeptoren = target: T1, M2-Cholinrezeptoren (Oryctolagus cuniculus, UniProt G1TBX1); test: Radioligand displacement of 3H-Chinuklidin in heart; assay type: binding, Kaninchen; conditions: read-out: Verdrängung des 3H-Chinuklidins im Kaninchenherzen (M2-Cholinrezeptoren); for inhibition at 10 µM: Konzentration 1.10^-5 Mol; for inhibition at 1 µM: Konzentration 1.10^-6 Mol
T1 construct: im Kaninchen-herzen (M2-Cholinre-zeptoren); from tissue; host or cells: rabbit heart
T1 sequence (G1TBX1 1-520): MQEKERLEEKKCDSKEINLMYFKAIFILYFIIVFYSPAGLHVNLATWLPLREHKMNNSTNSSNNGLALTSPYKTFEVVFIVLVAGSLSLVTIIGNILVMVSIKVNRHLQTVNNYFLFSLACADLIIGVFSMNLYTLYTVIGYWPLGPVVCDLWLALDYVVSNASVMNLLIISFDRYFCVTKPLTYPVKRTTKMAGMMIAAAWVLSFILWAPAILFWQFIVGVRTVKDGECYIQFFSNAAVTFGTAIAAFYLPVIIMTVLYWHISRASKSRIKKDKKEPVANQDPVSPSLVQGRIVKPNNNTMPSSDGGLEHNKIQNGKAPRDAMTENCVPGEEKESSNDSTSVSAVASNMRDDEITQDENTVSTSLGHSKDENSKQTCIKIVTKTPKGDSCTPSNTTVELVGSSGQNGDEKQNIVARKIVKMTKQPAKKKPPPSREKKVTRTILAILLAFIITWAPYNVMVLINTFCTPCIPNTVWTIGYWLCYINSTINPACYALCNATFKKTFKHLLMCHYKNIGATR
From the text: (§1) Dies beweisen spezielle Radioligandenuntersuchungen an einzelnen erfindungsgemäßen Verbindungen (s. Tabelle 6).

Orientierungsaktivität = test: Influence on orientation activity; assay type: in vivo, Mäusen; conditions: mice
From the text: Von Interesse ist der Einfluß der erfindungsgemäßen Verbindungen auf das ZNS und das Verhalten der Tiere. Alle Verbindungen zeigen eine Kombination von stimulierenden und sedativen Eigenschaften und bei höheren Dosen auch eine m-cholinomimetische Wirkung, wobei Tremor, Speichelfluß und Diarrhoe ausgelöst werden.

[1] = Side effects and CNS/behaviour: tremor (TD50), sedative and m-cholinomimetic effects; assay type: in vivo
From the text: Von Interesse ist der Einfluß der erfindungsgemäßen Verbindungen auf das ZNS und das Verhalten der Tiere.

[2] = target: T2, Acetylcholinesterase menschlicher Erythrozyten (Homo sapiens, UniProt P22303); test: Acetylcholinesterase inhibition, spectrophotometric; assay type: biochemical; conditions: Acetylcholinesteraseinhibierung bei menschlichen Erythrozyten IK, (Mol), human erythrocyte enzyme
T2 construct: Acetylcholin-esteraseinhi-bierung bei menschlichen Erythrozyten; from tissue; host or cells: human erythrocytes
From the text: Untersucht wurden die Wirkmechanismen der erfindungsgemäßen Verbindungen: • 1. Die Wirkung auf Acetylcholinesterase menschlicher Erythrozyten auf spektrofotometrischem Wege. • 2.

Wirkung von Hexenal = test: Influence on the effect of Hexenal; assay type: in vivo, Mäusen; conditions: mice
[3] = tested on: isolierten Präparaten des rechten Vorhofs von Kaninchen; test: Antiarrhythmic effect on isolated right atrium preparations (microelectrodes: AP duration, refractory period R, e/R); conditions: isolated right atrium of rabbit, microelectrodes
Method in brief: (§2)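 Rats were given calcium chloride by injection at 250 mg/kg, with ventricular fibrillation and survival time recorded. Isolated rabbit right atrium preparations were studied with microelectrodes for AP duration, refractory period (R), maximal inhibition (e) and the arrhythmia-susceptibility parameter e/R.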

[4] = tested on: Nerven-Muskel-Präparat von Mäusen (n.peroneus-m.extensor digitorum longus); test: Neuromuscular transmission in isolated nerve-muscle preparation (EPP, minEPP); conditions: for Stimulierung der Nerven-Muskelübertragung, in % der Amplitude: EPP: EPP = Endplattenpotential
Method in brief: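 Mouse peroneal nerve–extensor digitorum longus preparation, isolated and perfused with O2/CO2-gassed Lilly solution. EPPs and spontaneous minEPPs were recorded by magnetograph, then analysed by computer for frequency, amplitude and duration.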

α2-Adrenorezeptoren = test: Radioligand displacement of 3H-clonidine in cerebral cortex; assay type: binding, Kaninchens; conditions: for α2-adrenoblockierende Wirkung: in words, from radioligand studies
From the text: as §1

[5] = tested on: Calciumchlorid-Arrhythmie-Modells; test: Calcium chloride arrhythmia model (250 mg/kg): ventricular fibrillation, survival; assay type: in vivo, Ratten; conditions: rats, calcium chloride 250 mg/kg
Method in brief: as §2

M-cholinrezeptoren = test: Radioligand displacement of 3H-Propyl-2-aminobenzylat in brain; assay type: binding, Kaninchens
From the text: as §1

[6] = Acute toxicity, single intraperitoneal injection, probit analysis (LD50); assay type: in vivo, Mäusen; conditions: mice, i.p.
From the text: Ihre akute Toxizität wurde an Mäusen (einmalige intraperitoneale Injektion) nach der Methode der Probit-Analyse nach Zichtfield, Wilcoxon, t949 untersucht. In Tabelle 2 sind die Parameter der akuten Toxizität (LDso) angegeben, die eine mäßige Toxizität der erfindungsgemäßen Verbindungen belegen.

[7] = tested on: durch Skopolamin hervorgerufene Amnesie; test: Dark avoidance assay (passive avoidance), scopolamine-induced amnesia; assay type: in vivo, Mäusen; conditions: mice, compound s.c. 5 min before learning, Skopolamin i.p. 30 min before
Zahl der Krämpfe = test: Writhing test (intraperitoneal acetic acid); assay type: in vivo, Mäusen; conditions: male mice
Method in brief: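 Male mice received intraperitoneal acetic acid to induce writhing. Analgesic effect expressed as percentage reduction in the number of writhes.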

Samenleiter der Ratte = test: Contractile activity of smooth muscle: rat vas deferens; conditions: n = 9
From the text: (§3) In Versuchen an glattmpskulären Organen (Uterus, Samenleiter der Ratte und Krummdarm des Meerschweinchens) wurden die Wirkung der erfindungsgemäßen Verbindungen auf die kontraktile Aktivität der glatten Muskeln und ihre Reaktionen auf den Einfluß von Acetylcholin, Serotonin, Adrenalin und KCI als Agonisten untersucht. Mit Hilfe eines Schreibers wurden die Amplitude und die Dauer der Kontraktion der glatten Muskeln unter Verwendung eines Geräts vom Typ Mechanstron-untersucht.

Uterus der Ratte = test: Contractile activity of smooth muscle: rat uterus; conditions: n = 9; for activity at 10 µM / activity at 100 µM: Rattus norvegicus; for activity at 100 µM: Konzentration 1.10^-4 Mol
From the text: as §3

[8] = tested on: Na -Durchlässigkeit der Membrane des Ranvier-Schnürringes; test: Na+ permeability of the node of Ranvier membrane, voltage clamp; parameters: species or system Frosches; conditions: concentration giving 50 % block of ion permeability
From the text: (§4) Untersucht wurden die Wirkmechanismen der erfindungsgemäßen Verbindungen: • 1. Die Wirkung auf Acetylcholinesterase menschlicher Erythrozyten auf spektrofotometrischem Wege. • 2. Die Wirkung auf die K - und Na -Durchlässigkeit der Membrane des Ranvier-Schnürringes (s. Fox T.M. et al. "Modification of ionic membrane currrents of Ranvier nodes by UV-radiation under voltage clamp conditions", Experientia, 27, 1289-1290 /1971/ und Arhom P. et al. "Local anesthetics: effects on permeability properties of nodal membrane in myelynated nerve fibres from xenopus". Acta physiol. Scand. 91, 11-21 /1974/) der Nervenfasern des Hüftnervs des Frosches unter Anwendung der Methode der Messung der Membranspannung (Voltage-clampmethode) (s. Derksen H.E. "Axon membrane voltage fluctuations", Acta Physiol., Pharmacol Neer, 13, 373-466 /1965/).
(§5) Alle erfindungsgemäßen Verbindungen sind Blocker für die K^+-Durchlässigkeit der Membrane analog dem Amyridin. Die Salze der bicyclischen Basen blockieren jedoch stärker die Na -Durchlässigkeit der Membrane, was sich mit ihren sedativen und analgetischen Eigenschaften in Verbindung bringen läßt.

[9] = tested on: K -Durchlässigkeit der Membrane des Ranvier-Schnürringes; test: K+ permeability of the node of Ranvier membrane, voltage clamp; parameters: species or system Frosches; conditions: concentration giving 50 % block of ion permeability
From the text: as §4, §5

[10] = Konzentration 1.10^-5 Mol, 10 µM
[11] = Konzentration 1.10^-6 Mol, 1 µM
[12] = in vivo, toxic dose causing tremor in 50 % of the animals
[13] = Uterus der Ratte, Konzentration 1.10^-5 Mol
[14] = mouse, in vivo, ip, read-out: LD50

T2 sequence (P22303 other isoform, or with tags, fused parts or gaps): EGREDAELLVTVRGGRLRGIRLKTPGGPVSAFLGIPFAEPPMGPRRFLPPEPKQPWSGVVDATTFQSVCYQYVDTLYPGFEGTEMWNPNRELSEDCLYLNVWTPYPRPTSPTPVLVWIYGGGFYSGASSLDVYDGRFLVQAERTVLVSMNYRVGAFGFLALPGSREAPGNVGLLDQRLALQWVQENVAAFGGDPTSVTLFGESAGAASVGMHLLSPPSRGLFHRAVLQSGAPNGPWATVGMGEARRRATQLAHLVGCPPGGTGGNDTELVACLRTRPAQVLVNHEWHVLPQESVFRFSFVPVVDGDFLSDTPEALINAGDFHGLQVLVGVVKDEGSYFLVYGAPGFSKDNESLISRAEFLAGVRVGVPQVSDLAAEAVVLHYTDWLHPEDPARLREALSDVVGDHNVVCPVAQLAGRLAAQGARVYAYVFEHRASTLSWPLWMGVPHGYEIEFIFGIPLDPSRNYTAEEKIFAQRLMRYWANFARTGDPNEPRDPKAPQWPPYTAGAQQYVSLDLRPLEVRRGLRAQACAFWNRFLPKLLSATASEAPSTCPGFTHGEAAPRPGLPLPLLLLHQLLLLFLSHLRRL

| Compound | inhibition at 10 µM (M2-Cholinrezeptoren) | inhibition at 1 µM (M2-Cholinrezeptoren) | Ki [2] | Stimulierung der Nerven-Muskelübertragung, in % der Amplitude: EPP [4] | Stimulierung der Nerven-Muskelübertragung, in % der Amplitude: minEPP [4] | Verdrängung des 3H-Clonidins in der Hirnrinde des Kaninchens (α2-Adrenorezeptoren) (α2-Adrenorezeptoren; [10]) | Verdrängung des 3H-Clonidins in der Hirnrinde des Kaninchens (α2-Adrenorezeptoren) (α2-Adrenorezeptoren; [11]) | α2-adrenoblockierende Wirkung (α2-Adrenorezeptoren) | Verdrängung des 3H-Propyl-2-aminobenzylats im Gehirn des Kaninchens (M-cholinrezeptoren) (M-cholinrezeptoren; [10]) | Verdrängung des 3H-Propyl-2-aminobenzylats im Gehirn des Kaninchens (M-cholinrezeptoren) (M-cholinrezeptoren; [11]) | Einfluß auf das Gedächtnis: Zahl der Tiere in %, bei denen die Skopolaminwirkung aufgehoben wurde [7] | TD50 [1, 12] | Serotonin 1.10^-6 (Mol): Dauer, Min. (Uterus der Ratte; [13]) | LD50 [6, 14] | also measured |
| --- | --- | --- | --- | --- | --- | --- | --- | --- | --- | --- | --- | --- | --- | --- | --- |
| Cc1nc2c(c(N)c1C)CCC2 [Verbindung 1, 4-Amino-2,3-dimethyl-6,7-dihydro-5H-1-pyrindinhydrochlorid] | 0% | 0% | 1.07 µM | 50% | 90% | 26 | 0 | α2-adrenoblockierende Wirkung zeigt | 28 | 0 | 70% |  |  |  | Änderung der Orientierungsaktivität, in % (Orientierungsaktivität): -25%; Verhältnis TD50 zu ED50 ([1]; ED50 = dose blocking the effect of Skopolamin in 50 % of the animals (passive avoidance, mice)): 15; TD50 (Tremor) ([1]; toxic dose causing tremor in 50 % of the animals): 6 mg/kg; Änderung der Dauer der Seitenlage, in %: Hexenal 60 mg/kg (Wirkung von Hexenal): +28%; Antiarrhythmische Wirkung: Verlängerung d. Refraktärzeit (R), in % [3]: 120%; Antiarrhythmische Wirkung: Verlängerung d. Lebensdauer von Ratten an Hand des CaCl2-Arrhythmie-Modells, in % [5]: 150%; LD50 [6]: 15 mg/kg; Analgetische Wirkung: Abnahme d. Zahl der "Krämpfe" bei Mäusen, in % (Zahl der Krämpfe): 60% |
| Nc1c2c(nc3c1CCC3)CCCCC2 [Verbindung 38] |  |  | 0.48 µM | 28% | 52% |  |  |  |  |  | 70% | 17 mg/kg | 25±0.8 Min. | 49 mg/kg | selectivity ratio ([1]; in vivo, ED50 = dose blocking the effect of Skopolamin in 50 % of the animals (passive avoidance, mice), read-out: Verhältnis TD50 zu ED50): 7.6; activity at 10 µM (Samenleiter der Ratte; Rattus norvegicus, Samenleiter der Ratte, Konzentration 1.10^-5 Mol, read-out: Adrenalin 1.10^-6: Amplitude, % bezogen auf d.Kontrolle): 145%; activity at 10 µM (Uterus der Ratte; Uterus der Ratte (as head prints), Konzentration 1.10^-5 Mol, ditto mark -"- repeats unverändert, read-out: Acetylcholin 1.10^-6 (Mol): Amplidude, % bezogen auf d. Kontrolle): 125%; activity at 10 µM (Uterus der Ratte; Uterus der Ratte, Konzentration 1.10^-5 Mol, read-out: Serotonin 1.10^-6 (Mol): Amplitude, % bezogen auf die Kontrolle): 180%; Acetylcholin 1.10^-6 (Mol): Dauer, Min. (Uterus der Ratte; Uterus der Ratte (as head prints), Konzentration 1.10^-5 Mol): 20±0.6 Min.; IC50 ([8]; node of Ranvier, frog sciatic nerve fibres, voltage clamp, read-out: Blockierung der Na^+-Durchlässigkeit der Membrane Ic50 (Mol)): 4500 µM; IC50 ([9]; node of Ranvier, frog sciatic nerve fibres, voltage clamp, read-out: Blockierung der K^+-Durchlässigkeit der Membrane Ic50 (Mol)): 580 µM |
| Nc1c2c(nc3ccccc13)CCCC2 [Verbindung 41, 2,3,4,5-Tetrahydro-9-amino-acridin, reference compound] | 50% | 10% |  | 22% | 40% | 27 | 0 | in demselben Maße | 0 | 0 |  | 10 mg/kg | 5±0.5 Min. | 30 mg/kg | activity at 100 µM (Samenleiter der Ratte; Rattus norvegicus, read-out: Adrenalin 1.10^-6: Amplitude, % bezogen auf d.Kontrolle, Samenleiter der Ratte, Konzentration 1.10^-4 Mol): 35%; activity at 10 µM (Samenleiter der Ratte; Rattus norvegicus, read-out: Adrenalin 1.10^-6: Amplitude, % bezogen auf d.Kontrolle, Samenleiter der Ratte, Konzentration 1.10^-5 Mol): 120%; Adrenalin 1.10^-6: Dauer, Min. (Samenleiter der Ratte; Samenleiter der Ratte, Konzentration 1.10^-4 Mol): 2±0.2 Min.; Adrenalin 1.10^-6: Dauer, Min. (Samenleiter der Ratte; Samenleiter der Ratte, Konzentration 1.10^-5 Mol): 2±0.06 Min.; activity at 100 µM (Uterus der Ratte; read-out: Acetylcholin 1.10^-6 (Mol): Amplidude, % bezogen auf d. Kontrolle, Uterus der Ratte (as head prints), ditto mark -"- repeats unverändert): 26%; activity at 10 µM (Uterus der Ratte; read-out: Acetylcholin 1.10^-6 (Mol): Amplidude, % bezogen auf d. Kontrolle, Uterus der Ratte (as head prints), Konzentration 1.10^-5 Mol, ditto mark -"- repeats unverändert): 100%; activity at 100 µM (Uterus der Ratte; read-out: Serotonin 1.10^-6 (Mol): Amplitude, % bezogen auf die Kontrolle, Uterus der Ratte): 0%; activity at 10 µM (Uterus der Ratte; read-out: Serotonin 1.10^-6 (Mol): Amplitude, % bezogen auf die Kontrolle, Uterus der Ratte, Konzentration 1.10^-5 Mol): 164%; IC50 ([8]; read-out: Blockierung der Na^+-Durchlässigkeit der Membrane Ic50 (Mol), node of Ranvier, frog sciatic nerve fibres, voltage clamp): 15 µM; IC50 ([9]; read-out: Blockierung der K^+-Durchlässigkeit der Membrane Ic50 (Mol), node of Ranvier, frog sciatic nerve fibres, voltage clamp): 800 µM |
